In brackets after ≈: the same amount, converted by molar mass.
How the values were obtained:
Pasteurella multocida = experiment: Minimum inhibitory concentration required to inhibit Pasteurella multocida 59A006 in vitro; assay type: functional
Mus musculus = organism: Mus musculus; experiment: Protected dose which protects 50% of challenged mice from death owing to the Pasteurella multocida (59A006) infection; assay type: functional; conditions: read-out: PD50

| Structure (SMILES) | MIC (Pasteurella multocida) [µg/mL] | ED50 (Mus musculus) [mg/kg] |
| --- | --- | --- |
| CC[C@H]1OC(=O)CC(O)[C@H](C)[C@@H](O[C@@H]2O[C@H](C)C[C@H](N(C)C)[C@H]2O)[C@@H](CCN2CCOCC2)C[C@@H](C)C(=O)/C=C/C(C)=C/[C@@H]1C (stereo partly drawn) | 0.78 (≈ 1.22 µM) | > 150 |
| CC[C@H]1OC(=O)CC(O)[C@H](C)[C@@H](O[C@@H]2O[C@H](C)C[C@H](N(C)C)[C@H]2O)[C@@H](CCN2CCC2)C[C@@H](C)C(=O)/C=C/C(C)=C/[C@@H]1C (stereo partly drawn) | 0.2 (≈ 0.33 µM) | 46 |
| CC[C@H]1OC(=O)CC(O)[C@H](C)[C@@H](O[C@@H]2O[C@H](C)[C@@H](O)[C@H](N(C)C)[C@H]2O)[C@@H](CCN(C)CCCN(C)C)C[C@@H](C)C(=O)/C=C/C(C)=C/[C@@H]1CO[C@@H]1O[C@H](C)[C@@H](O)[C@@H](OC)[C@H]1OC (stereo partly drawn) | 3.13 (≈ 3.59 µM) | 41 |
| CC[C@H]1OC(=O)CC(O)[C@H](C)[C@@H](O[C@@H]2O[C@H](C)C[C@H](N(C)C)[C@H]2O)[C@@H](CCN2CC(C)CC(C)C2)C[C@@H](C)C(=O)/C=C/[C@]2(C)O[C@H]2[C@@H]1C (stereo partly drawn) | 0.2 (≈ 0.295 µM) | > 150 |
| CC[C@H]1OC(=O)CC(O)[C@H](C)[C@@H](O[C@@H]2O[C@H](C)[C@@H](O)[C@H](N(C)C)[C@H]2O)[C@@H](CCN(C)CCN(C)C)C[C@@H](C)C(=O)/C=C/C(C)=C/[C@@H]1CO[C@@H]1O[C@H](C)[C@@H](O)[C@@H](OC)[C@H]1OC (stereo partly drawn) | 3.13 (≈ 3.65 µM) | > 50 |
| CC[C@H]1OC(=O)CC(O)[C@H](C)[C@@H](O[C@@H]2O[C@H](C)C[C@H](N(C)C)[C@H]2O)[C@@H](CCN(CC)CC)C[C@@H](C)C(=O)/C=C/C(C)=C/[C@@H]1C (stereo partly drawn) | 0.39 (≈ 0.626 µM) | 141 |
| CC[C@H]1OC(=O)CC(O)[C@H](C)[C@@H](O[C@@H]2O[C@H](C)C[C@H](N(C)C)[C@H]2O)[C@@H](CCNCCCN(C)C)C[C@@H](C)C(=O)/C=C/C(C)=C/[C@@H]1C (stereo partly drawn) | 0.39 (≈ 0.598 µM) | 5 |
| CC[C@H]1OC(=O)CC(O)[C@H](C)[C@@H](O[C@@H]2O[C@H](C)C[C@H](N(C)C)[C@H]2O)[C@@H](CCNCCO)C[C@@H](C)C(=O)/C=C/C(C)=C/[C@@H]1C (stereo partly drawn) | 0.2 (≈ 0.327 µM) | 10 |
| CC[C@H]1OC(=O)CC(O)[C@H](C)[C@@H](O[C@@H]2O[C@H](C)[C@@H](O)[C@H](N(C)C)[C@H]2O)[C@@H](CCNCCCN(C)C)C[C@@H](C)C(=O)/C=C/C(C)=C/[C@@H]1CO[C@@H]1O[C@H](C)[C@@H](O)[C@@H](OC)[C@H]1OC (stereo partly drawn) | 12.5 (≈ 14.6 µM) | – |
| CC[C@H]1OC(=O)CC(O)[C@H](C)[C@@H](O[C@@H]2O[C@H](C)C[C@H](N(C)C)[C@H]2O)[C@@H](CCNC(CO)CO)C[C@@H](C)C(=O)/C=C/C(C)=C/[C@@H]1C (stereo partly drawn) | 0.39 (≈ 0.609 µM) | 31 |
| CC[C@H]1OC(=O)CC(O)[C@H](C)[C@@H](O[C@@H]2O[C@H](C)C[C@H](N(C)C)[C@H]2O)[C@@H](CCN(C)CCO)C[C@@H](C)C(=O)/C=C/C(C)=C/[C@@H]1C (stereo partly drawn) | 0.2 (≈ 0.32 µM) | 45 |
| CC[C@H]1OC(=O)CC(O)[C@H](C)[C@@H](O[C@@H]2O[C@H](C)C[C@H](N(C)C)[C@H]2O)[C@@H](CCNC2C(O)CCCC2O)C[C@@H](C)C(=O)/C=C/C(C)=C/[C@@H]1C (stereo partly drawn) | 0.2 (≈ 0.294 µM) | 11 |
| CC[C@H]1OC(=O)CC(O)[C@H](C)[C@@H](O[C@@H]2O[C@H](C)[C@@H](O)[C@H](N(C)C)[C@H]2O)[C@@H](CCN(C)CCCNC)C[C@@H](C)C(=O)/C=C/C(C)=C/[C@@H]1CO[C@@H]1O[C@H](C)[C@@H](O)[C@@H](OC)[C@H]1OC (stereo partly drawn) | 25 (≈ 29.1 µM) | – |
| CC[C@H]1OC(=O)CC(O)[C@H](C)[C@@H](O[C@@H]2O[C@H](C)C[C@H](N(C)C)[C@H]2O)[C@@H](CCN(C)CCN(C)C(=O)CN)C[C@@H](C)C(=O)/C=C/C(C)=C/[C@@H]1C (stereo partly drawn) | 0.2 (≈ 0.288 µM) | 4 |
| CCNCC[C@H]1C[C@@H](C)C(=O)/C=C/C(C)=C/[C@H](C)[C@@H](CC)OC(=O)CC(O)[C@H](C)[C@H]1O[C@@H]1O[C@H](C)C[C@H](N(C)C)[C@H]1O (stereo partly drawn) | 0.2 (≈ 0.336 µM) | > 150 |
